Source: the supplement of paper PMC4862054
One block for each molecule: values may come before it.

Assays:
Details in all cases: 72 h
HDQ-P1 [1] = test system: HDQ-P1
Protocol: (§1)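 Drug sensitivity and resistance testing (DSRT) of breast cancer cell lines in 384-well plates, 5 concentrations in 10-fold dilutions over a compound-specific 10,000-fold range. After 72 h, cytotoxicity was read by CellTox Green fluorescence and viability by CellTiter-Glo luminescence (multiplexed), normalised to DMSO and benzethonium chloride controls. EC50 is the inflection point of the fitted dose-response curve (bottom asymptote free, so it can be relative for partial curves) and is censored at the highest tested concentration. Rows with DSS 0 (no meaningful response) were excluded.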

MDA-MB-468 [2] = test system: MDA-MB-468
Protocol: as §1

Hs578T [3] = test system: Hs578T
Protocol: as §1

HCC1599 [4] = test system: HCC1599
How it was run: (§2)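 To measure viability, fluorescence at 560/590 nm was read after 2.5 µl CellTiter-Blue had been added for 2 h at 37 °C. Cells from breast cancer lines had been seeded in 20 µl suspension onto 384-well plates pre-loaded with compound dissolved in 5 µl medium and kept for 72 h. EC50 comes from a fitted percent-inhibition dose-response curve censored at the highest concentration, after per-plate normalisation to vehicle and a positive kill control, Z'-factor checks, and removal of rows with zero drug sensitivity score.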

MDA-MB-231 [5] = test system: MDA-MB-231
Protocol: as §1

MCF-10A = test system: MCF-10A
Protocol: as §1

CAL-85-1 [6] = test system: CAL-85-1
Protocol: as §1

HDQ-P1 [7] = test system: HDQ-P1; remark: listed apart in the source
How it was run: as §2

BT-549 [8] = test system: BT-549
How it was run: as §2

CAL-85-1 [9] = test system: CAL-85-1; remark: listed apart in the source
How it was run: as §2

DU-4475 = test system: DU-4475
How it was run: as §2

MDA-MB-453 [10] = test system: MDA-MB-453
How it was run: as §2

CAL-148 = test system: CAL-148
How it was run: as §2

CAL-51 = test system: CAL-51
How it was run: as §2

MDA-MB-231 [11] = test system: MDA-MB-231; remark: listed apart in the source
How it was run: as §2

HCC1937 [12] = test system: HCC1937
How it was run: as §2

MDA-MB-468 [13] = test system: MDA-MB-468; remark: listed apart in the source
How it was run: as §2

CAL-120 = test system: CAL-120
How it was run: as §2

SK-BR-3 = test system: SK-BR-3
How it was run: as §2

HCC1143 [14] = test system: HCC1143
How it was run: as §2

MFM-223 [15] = test system: MFM-223
How it was run: as §2

Hs578T [16] = test system: Hs578T; remark: listed apart in the source
How it was run: as §2

BT-474 [17] = test system: BT-474
How it was run: as §2

HCC1937 [18] = test system: HCC1937; remark: listed apart in the source
Protocol: as §1

HCC1143 [19] = test system: HCC1143; remark: listed apart in the source
Protocol: as §1

MFM-223 [20] = test system: MFM-223; remark: listed apart in the source
Protocol: as §1

BT-549 [21] = test system: BT-549; remark: listed apart in the source
Protocol: as §1

HCC1599 [22] = test system: HCC1599; remark: listed apart in the source
How it was run: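 Per-plate normalisation used 0.1 % DMSO and a positive kill control. Breast cancer cell lines (20 µl suspension) were seeded into 384-well plates containing compound at 5 concentrations in 10-fold steps across a compound-specific 10,000-fold range, incubated for 72 h, and read first for CellTox Green fluorescence (485/520 nm), then for CellTiter-Glo luminescence. EC50 was fitted from the dose-response curves and censored at the top concentration.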

BT-474 [23] = test system: BT-474; remark: listed apart in the source
Protocol: as §1

HCC1599 [24] = test system: HCC1599; remark: listed apart in the source
Protocol: as §1

MDA-MB-453 [25] = test system: MDA-MB-453; remark: listed apart in the source
Protocol: as §1

Structure (SMILES): Cn1cc(C[C@@H](N)C(=O)O)c2ccccc21 [1-methyl-D-tryptophan]
EC50, CellTox Green (HDQ-P1 [1]): > 5000 nM | EC50, CellTox Green (MDA-MB-468 [2]): > 5000 nM | EC50, CellTox Green (Hs578T [3]): > 5000 nM

EC50, CellTiter-Blue viability (HCC1599 [4]): 70.2 nM
Structure (SMILES): O=C(O)CC[C@H]1CC[C@@](c2cc(F)ccc2F)(S(=O)(=O)c2ccc(Cl)cc2)CC1 [MK-0752]

Structure (SMILES): COc1cc2c(cc1-c1c(C)noc1C)ncc1[nH]c(=O)n([C@H](C)c3ccccn3)c12 [I-BET151]
EC50, CellTox Green (MDA-MB-231 [5]): 8480 nM | EC50, CellTox Green (MCF-10A): 6940 nM | EC50, CellTox Green (HDQ-P1 [1]): 123 nM | EC50, CellTox Green (MDA-MB-468 [2]): 3140 nM | EC50, CellTox Green (CAL-85-1 [6]): 1370 nM

EC50, CellTiter-Blue viability (BT-549 [8]): 1330 nM
Structure (SMILES): Cn1nnc2c(C(N)=O)ncn2c1=O [Temozolomide]
EC50, CellTiter-Blue viability (HDQ-P1 [7]): 7850 nM

EC50, CellTiter-Blue viability (MDA-MB-453 [10]): 6.23 nM | EC50, CellTiter-Blue viability (MDA-MB-231 [11]): 20.4 nM | EC50, CellTiter-Blue viability (HCC1937 [12]): 11.1 nM | EC50, CellTiter-Blue viability (MDA-MB-468 [13]): 13.7 nM | EC50, CellTiter-Blue viability (SK-BR-3): 8.58 nM | EC50, CellTiter-Blue viability (HCC1143 [14]): 13.8 nM | EC50, CellTiter-Blue viability (BT-474 [17]): > 1000 nM | EC50, CellTiter-Blue viability (BT-549 [8]): 23.5 nM | EC50, CellTiter-Glo (HCC1599 [22]): 64.5 nM
Structure (SMILES): CC[C@@H]1C(=O)N(C)c2cnc(Nc3ccc(C(=O)N[C@H]4CC[C@H](N5CCN(CC6CC6)CC5)CC4)cc3OC)nc2N1C(C)C [Volasertib]
EC50, CellTiter-Blue viability (HDQ-P1 [7]): 379 nM | EC50, CellTiter-Blue viability (CAL-85-1 [9]): 10.4 nM | EC50, CellTiter-Blue viability (DU-4475): 24.7 nM | EC50, CellTiter-Blue viability (CAL-148): 11.6 nM | EC50, CellTiter-Blue viability (CAL-51): 24.8 nM | EC50, CellTiter-Blue viability (CAL-120): 5.21 nM | EC50, CellTiter-Blue viability (MFM-223 [15]): 1.6 nM | EC50, CellTiter-Blue viability (Hs578T [16]): 36.8 nM | EC50, CellTox Green (MDA-MB-231 [5]): 3.18 nM | EC50, CellTox Green (MCF-10A): 2.53 nM | EC50, CellTox Green (HCC1937 [18]): 0.49 nM | EC50, CellTox Green (HDQ-P1 [1]): 17.9 nM | EC50, CellTox Green (CAL-85-1 [6]): 3.2 nM | EC50, CellTox Green (HCC1143 [19]): 49.1 nM | EC50, CellTox Green (MFM-223 [20]): 0.83 nM | EC50, CellTox Green (Hs578T [3]): 120 nM | EC50, CellTox Green (BT-549 [21]): 68.5 nM

Structure (SMILES): COc1cc2c(N3CCN(C(=O)Nc4ccc(OC(C)C)cc4)CC3)ncnc2cc1OCCCN1CCCCC1 [Tandutinib]
EC50, CellTiter-Blue viability (CAL-148): 605 nM

EC50, CellTiter-Blue viability (HCC1937 [12]): 13400 nM
Structure (SMILES): NC(=O)NO [Hydroxyurea]

EC50, CellTiter-Blue viability (MDA-MB-453 [10]): 1410 nM
Structure (SMILES): C[C@@H](C(=O)O)c1ccc(-c2ccccc2)c(F)c1 [Tarenflurbil]
EC50, CellTox Green (BT-474 [23]): > 10000 nM

EC50, CellTiter-Glo (HCC1599 [22]): 5170 nM
Structure (SMILES): CCCc1cc(C)[nH]c(=O)c1CNC(=O)c1cc(-c2ccnc(N3CCN(C)CC3)c2)cc2c1cnn2C(C)C [GSK343]
EC50, CellTox Green (MDA-MB-231 [5]): 2280 nM | EC50, CellTox Green (CAL-85-1 [6]): 3440 nM | EC50, CellTox Green (HCC1599 [24]): > 10000 nM | EC50, CellTox Green (MFM-223 [20]): 227 nM | EC50, CellTox Green (MDA-MB-453 [25]): 2680 nM | EC50, CellTox Green (BT-474 [23]): 3370 nM
